PMC3853718 (Journal of Translational Medicine, 2013)

Tested on: subjects with advanced malignancies
Experiment: Phase 1 dose escalation: toxicity, safety and tolerability (DLT, MAD, RP2D, AEs)
Protocol: Subjects continued on treatment until there was disease progression, unacceptable toxicity, or the subject withdrew consent. The trial employed an accelerated titration design [16] starting at a dose of 0.33 mg/m^2 (one-sixth of the highest nontoxic dose in dogs).
the dose was doubled in sequential subjects until a DLT was observed or a subject experienced grade 2 toxicity [16]. In the case of an observed grade 2 toxicity, a second subject was enrolled at the same dose level. If the second subject also experienced a grade 2 toxicity, 2 additional subjects were accrued at that dose level for a total of 4 subjects. […] Each subject was allocated to only a single dose level of drug. Dose delay or modification was permitted based on laboratory and clinical assessment performed on the day of treatment.
Dose-limiting toxicities were determined during the first cycle for each dose level. A DLT was defined as any grade 3 or 4 hematologic toxicity lasting for at least 1 week, or as any grade 3 or 4 nonhematologic toxicity. […] Normal alkaline phosphatase level (< grade 1) at screening that rose to greater than or equal to grade 3; grade 1 or 2 alkaline phosphatase level at screening that rose to grade 4; grade 1 or 2 aspartate aminotransferase (AST) and/or alanine aminotransferase (ALT) levels at screening that doubled from baseline to become greater than or equal to grade 3; and any other abnormal nonhematology laboratory value greater than or equal to grade 3 that required medical intervention to treat, led to hospitalization, or persisted for at least 1 week were also considered DLTs.
Adverse events were graded based on the National Cancer Institute Common Terminology Criteria for Adverse Events (NCI CTCAE version 3.0) and were coded using the Medical Dictionary for Regulatory Activities (MedDRA version 13.0).

Compound: CCc1cnn2c(NCc3ccc[n+]([O-])c3)cc(N3CCCC[C@H]3CCO)nc12 [dinaciclib]
- TEAE: Hyperglycemia (10 mg/m^2 (n = 3), Grade 3–4): 1 (33) n (%)
- TEAE: Hyperuricemia (10 mg/m^2 (n = 3), Grade 3–4): 0 n (%)
- TEAE: Hypokalemia (10 mg/m^2 (n = 3), Grade 3–4): 0 n (%)
- TEAE: Hypophosphatemia (10 mg/m^2 (n = 3), Grade 3–4): 0 n (%)
- TEAE: Increased ALP (10 mg/m^2 (n = 3), Grade 3–4): 0 n (%)
- TEAE: Increased ALT (10 mg/m^2 (n = 3), Grade 3–4): 0 n (%)
- TEAE: Increased AST (10 mg/m^2 (n = 3), Grade 3–4): 0 n (%)
- TEAE: Nausea (10 mg/m^2 (n = 3), Grade 3–4): 0 n (%)
- TEAE: Neutropenia (10 mg/m^2 (n = 3), Grade 3–4): 1 (33) n (%)
- TEAE: Peripheral edema (10 mg/m^2 (n = 3), Grade 3–4): 0 n (%)
- TEAE: Pyrexia (10 mg/m^2 (n = 3), Grade 3–4): 0 n (%)
- TEAE: Subjects with any AE (10 mg/m^2 (n = 3), Grade 3–4): 1 (33) n (%)
- TEAE: Urinary tract infection (10 mg/m^2 (n = 3), Grade 3–4): 0 n (%)
- TEAE: Vomiting (10 mg/m^2 (n = 3), Grade 3–4): 0 n (%)
- TEAE: Weight decreased (10 mg/m^2 (n = 3), Grade 3–4): 0 n (%)
- TEAE: Abdominal distension (12 mg/m^2 (n = 11), All grades): 1 (9) n (%)
- TEAE: Abdominal pain (12 mg/m^2 (n = 11), All grades): 0 n (%)
- TEAE: Anemia (12 mg/m^2 (n = 11), All grades): 6 (55) n (%)
- TEAE: Asthenia (12 mg/m^2 (n = 11), All grades): 4 (36) n (%)
- TEAE: Back pain (12 mg/m^2 (n = 11), All grades): 1 (9) n (%)
- TEAE: Constipation (12 mg/m^2 (n = 11), All grades): 2 (18) n (%)
- TEAE: Cough (12 mg/m^2 (n = 11), All grades): 2 (18) n (%)
- TEAE: Decreased appetite (12 mg/m^2 (n = 11), All grades): 2 (18) n (%)
- TEAE: Dehydration (12 mg/m^2 (n = 11), All grades): 0 n (%)
- TEAE: Diarrhea (12 mg/m^2 (n = 11), All grades): 1 (9) n (%)
- TEAE: Dizziness (12 mg/m^2 (n = 11), All grades): 1 (9) n (%)
- TEAE: Dyspnea (12 mg/m^2 (n = 11), All grades): 0 n (%)
- TEAE: Fatigue (12 mg/m^2 (n = 11), All grades): 4 (36) n (%)
- TEAE: Flatulence (12 mg/m^2 (n = 11), All grades): 1 (9) n (%)
- TEAE: Hyperbilirubinemia (12 mg/m^2 (n = 11), All grades): 3 (27) n (%)
- TEAE: Hyperglycemia (12 mg/m^2 (n = 11), All grades): 4 (36) n (%)
- TEAE: Hyperuricemia (12 mg/m^2 (n = 11), All grades): 3 (27) n (%)
- TEAE: Hypokalemia (12 mg/m^2 (n = 11), All grades): 2 (18) n (%)
- TEAE: Hypophosphatemia (12 mg/m^2 (n = 11), All grades): 2 (18) n (%)
- TEAE: Increased ALP (12 mg/m^2 (n = 11), All grades): 4 (36) n (%)
- TEAE: Increased ALT (12 mg/m^2 (n = 11), All grades): 3 (27) n (%)
- TEAE: Increased AST (12 mg/m^2 (n = 11), All grades): 4 (36) n (%)
- TEAE: Nausea (12 mg/m^2 (n = 11), All grades): 3 (27) n (%)
- TEAE: Neutropenia (12 mg/m^2 (n = 11), All grades): 4 (36) n (%)
- TEAE: Peripheral edema (12 mg/m^2 (n = 11), All grades): 3 (27) n (%)
- TEAE: Pyrexia (12 mg/m^2 (n = 11), All grades): 4 (36) n (%)
- TEAE: Subjects with any AE (12 mg/m^2 (n = 11), All grades): 11 (100) n (%)
- TEAE: Urinary tract infection (12 mg/m^2 (n = 11), All grades): 4 (36) n (%)
- TEAE: Vomiting (12 mg/m^2 (n = 11), All grades): 3 (27) n (%)
- TEAE: Weight decreased (12 mg/m^2 (n = 11), All grades): 0 n (%)
- TEAE: Abdominal distension (12 mg/m^2 (n = 11), Grade 3–4): 0 n (%)
- TEAE: Abdominal pain (12 mg/m^2 (n = 11), Grade 3–4): 0 n (%)
- TEAE: Anemia (12 mg/m^2 (n = 11), Grade 3–4): 1 (9) n (%)
- TEAE: Asthenia (12 mg/m^2 (n = 11), Grade 3–4): 0 n (%)
- TEAE: Back pain (12 mg/m^2 (n = 11), Grade 3–4): 0 n (%)
- TEAE: Constipation (12 mg/m^2 (n = 11), Grade 3–4): 0 n (%)
- TEAE: Cough (12 mg/m^2 (n = 11), Grade 3–4): 0 n (%)
- TEAE: Decreased appetite (12 mg/m^2 (n = 11), Grade 3–4): 0 n (%)
- TEAE: Dehydration (12 mg/m^2 (n = 11), Grade 3–4): 0 n (%)
- TEAE: Diarrhea (12 mg/m^2 (n = 11), Grade 3–4): 0 n (%)
- TEAE: Dizziness (12 mg/m^2 (n = 11), Grade 3–4): 0 n (%)
- TEAE: Dyspnea (12 mg/m^2 (n = 11), Grade 3–4): 0 n (%)
- TEAE: Fatigue (12 mg/m^2 (n = 11), Grade 3–4): 0 n (%)
- TEAE: Flatulence (12 mg/m^2 (n = 11), Grade 3–4): 0 n (%)
- TEAE: Hyperbilirubinemia (12 mg/m^2 (n = 11), Grade 3–4): 1(9) n (%)
- TEAE: Hyperglycemia (12 mg/m^2 (n = 11), Grade 3–4): 2 (18) n (%)
- TEAE: Hyperuricemia (12 mg/m^2 (n = 11), Grade 3–4): 2 (18) n (%)
- TEAE: Hypokalemia (12 mg/m^2 (n = 11), Grade 3–4): 1 (9) n (%)
- TEAE: Hypophosphatemia (12 mg/m^2 (n = 11), Grade 3–4): 2 (18) n (%)
- TEAE: Increased ALP (12 mg/m^2 (n = 11), Grade 3–4): 0 n (%)
- TEAE: Increased ALT (12 mg/m^2 (n = 11), Grade 3–4): 0 n (%)
- TEAE: Increased AST (12 mg/m^2 (n = 11), Grade 3–4): 1 (9) n (%)
- TEAE: Nausea (12 mg/m^2 (n = 11), Grade 3–4): 0 n (%)
- TEAE: Neutropenia (12 mg/m^2 (n = 11), Grade 3–4): 2 (18) n (%)
- TEAE: Peripheral edema (12 mg/m^2 (n = 11), Grade 3–4): 0 n (%)
- TEAE: Pyrexia (12 mg/m^2 (n = 11), Grade 3–4): 0 n (%)
- TEAE: Subjects with any AE (12 mg/m^2 (n = 11), Grade 3–4): 8 (73) n (%)
- TEAE: Urinary tract infection (12 mg/m^2 (n = 11), Grade 3–4): 0 n (%)
- TEAE: Vomiting (12 mg/m^2 (n = 11), Grade 3–4): 0 n (%)
- TEAE: Weight decreased (12 mg/m^2 (n = 11), Grade 3–4): 0 n (%)
- TEAE: Abdominal distension (14 mg/m^2 (n = 5), All grades): 0 n (%)
- TEAE: Abdominal pain (14 mg/m^2 (n = 5), All grades): 0 n (%)
- TEAE: Anemia (14 mg/m^2 (n = 5), All grades): 2 (40) n (%)
- TEAE: Asthenia (14 mg/m^2 (n = 5), All grades): 1 (20) n (%)
- TEAE: Back pain (14 mg/m^2 (n = 5), All grades): 1 (20) n (%)
- TEAE: Constipation (14 mg/m^2 (n = 5), All grades): 1 (20) n (%)
- TEAE: Cough (14 mg/m^2 (n = 5), All grades): 0 n (%)
- TEAE: Decreased appetite (14 mg/m^2 (n = 5), All grades): 1 (20) n (%)
- TEAE: Dehydration (14 mg/m^2 (n = 5), All grades): 3 (60) n (%)
- TEAE: Diarrhea (14 mg/m^2 (n = 5), All grades): 0 n (%)
- TEAE: Dizziness (14 mg/m^2 (n = 5), All grades): 1 (20) n (%)
- TEAE: Dyspnea (14 mg/m^2 (n = 5), All grades): 1 (20) n (%)
- TEAE: Fatigue (14 mg/m^2 (n = 5), All grades): 0 n (%)
- TEAE: Flatulence (14 mg/m^2 (n = 5), All grades): 0 n (%)
- TEAE: Hyperbilirubinemia (14 mg/m^2 (n = 5), All grades): 2 (40) n (%)
- TEAE: Hyperglycemia (14 mg/m^2 (n = 5), All grades): 1 (20) n (%)
- TEAE: Hyperuricemia (14 mg/m^2 (n = 5), All grades): 1 (20) n (%)
- TEAE: Hypokalemia (14 mg/m^2 (n = 5), All grades): 0 n (%)
- TEAE: Hypophosphatemia (14 mg/m^2 (n = 5), All grades): 0 n (%)
- TEAE: Increased ALP (14 mg/m^2 (n = 5), All grades): 1 (20) n (%)
- TEAE: Increased ALT (14 mg/m^2 (n = 5), All grades): 0 n (%)
- TEAE: Increased AST (14 mg/m^2 (n = 5), All grades): 1 (20) n (%)
- TEAE: Nausea (14 mg/m^2 (n = 5), All grades): 4 (80) n (%)
- TEAE: Neutropenia (14 mg/m^2 (n = 5), All grades): 3 (60) n (%)
- TEAE: Peripheral edema (14 mg/m^2 (n = 5), All grades): 0 n (%)
- TEAE: Pyrexia (14 mg/m^2 (n = 5), All grades): 0 n (%)
- TEAE: Subjects with any AE (14 mg/m^2 (n = 5), All grades): 5 (100) n (%)
- TEAE: Urinary tract infection (14 mg/m^2 (n = 5), All grades): 0 n (%)
- TEAE: Vomiting (14 mg/m^2 (n = 5), All grades): 2 (40) n (%)
- TEAE: Weight decreased (14 mg/m^2 (n = 5), All grades): 0 n (%)
